Patent US4574117A, “Stabilization of phenylalanine ammonia-lyase in a bioreactor using reducing agents” (Genex Corporation, priority 1984, dated 1986)
Blank lines part the entries; values can stand above or below the compound they belong to.

Tests used:
[1] = molecular target: T1, phenylalanine ammonia-lyase (PAL) (Rhodotorula mucilaginosa, UniProt P10248); assay: Example 1: L-phenylalanine bioreaction with PAL-containing cells, 2-mercaptoethanol at 100, 500 and 1000 mg/liter; assay type: biochemical, Rhodotorula rubra; conditions: after 15 hours, 35° C., pH 10.5; for L-Phenylalanine Produced: ammonium sulfate
T1 construct: endogenous in cells; host or cells: Rhodotorula rubra cells (aerobic fermentation, whole cells harvested by centrifugation)
T1 sequence (P10248 1-713): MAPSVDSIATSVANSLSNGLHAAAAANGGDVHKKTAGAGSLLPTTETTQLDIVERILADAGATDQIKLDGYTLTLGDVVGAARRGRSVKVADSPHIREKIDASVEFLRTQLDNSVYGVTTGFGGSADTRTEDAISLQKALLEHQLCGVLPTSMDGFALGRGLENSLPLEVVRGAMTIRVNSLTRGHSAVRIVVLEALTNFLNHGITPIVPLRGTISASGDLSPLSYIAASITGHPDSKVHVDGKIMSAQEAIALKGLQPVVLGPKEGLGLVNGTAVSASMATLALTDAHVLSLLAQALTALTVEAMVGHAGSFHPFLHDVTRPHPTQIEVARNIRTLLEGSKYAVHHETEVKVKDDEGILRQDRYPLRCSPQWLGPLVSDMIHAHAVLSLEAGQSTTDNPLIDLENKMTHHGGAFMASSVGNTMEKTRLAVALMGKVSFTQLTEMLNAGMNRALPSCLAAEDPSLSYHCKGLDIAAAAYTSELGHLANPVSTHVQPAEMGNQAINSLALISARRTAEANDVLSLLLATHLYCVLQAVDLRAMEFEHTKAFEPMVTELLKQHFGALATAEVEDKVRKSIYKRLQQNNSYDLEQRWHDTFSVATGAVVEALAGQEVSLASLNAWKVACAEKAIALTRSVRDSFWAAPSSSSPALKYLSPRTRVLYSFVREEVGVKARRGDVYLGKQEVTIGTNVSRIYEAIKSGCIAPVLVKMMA
From the text: Microbial cells containing a high level of activity of phenylalanine ammonia-lyase (PAL) were produced by aerobic fermentation. A 14 liter fermentor containing 10 liters of nutrient medium was inoculated with a seed culture of Rhodotorula rubra. The nutrient medium consisted of: soy peptone 2.7%; casein hydrolysate (Sheffield NZ-Amine) 1.35%; and corn steep liquor 0.18%. The fermentor contents were aerated and agitated, and the pH was maintained at 6.0 by periodic additions of ammonia water or sulfuric acid. During the fermentation, the PAL activity of the cells was monitored, and when the PAL activity reached a maximum (approximately 22 hours after inoculation), the fermentation was stopped by shutting off the aeration and agitation. The vessel was de-aerated by sparging with nitrogen gas. The microbial cells were separated from the fermentation broth by centrifugation, and stored at 4° C. Four 14 liter vessels were each filled with 13 liters of a substrate solution containing: ammonia, 4 mole/liter; ammonium sulfate, 100 gram/liter; and trans-cinnamic acid, 10 gram/liter. The pH of the solution was 10.5, and the temperature was maintained at 35° C. The vessels were deaerated by sparging with nitrogen gas, and 2-mercaptoethanol was added to three of the vessels in amounts of 100, 500, and 1000 mg/liter. PAL-containing microbial cells were then added to all four vessels in the amount of 1.35 gram (dry basis) per liter. The vessels were agitated for one minute every three hours. Supplemental trans-cinnamic acid was added to the vessels in the amount of 2.5 gram/liter at 3, 6, 9, and 12 hours after the addition of cells. After 15 hours, the concentration of L-phenylalanine in the reaction mixture was measured, and the PAL activity of the cells was determined. The results, which are shown in Table I, indicate that the stability of PAL was enhanced by the reducing agent, with the result that a greater quantity of L-phenylanine was produced. The optimum concentration for 2-mercaptoethanol is between 100 and 1000 mg/liter.

[2] = molecular target: T1, phenylalanine ammonia-lyase (PAL); assay: Example 2: bioreaction in ammonium carbonate or ammonium sulfate substrate solution with 2-mercaptoethanol; assay type: biochemical, Rhodotorula rubra; conditions: 600 mg/l 2-mercaptoethanol, after 15 hours
Procedure: Four 14 liter vessels were each filled with 13 liters of substrate solution. In two of the vessels, the substrate solution contained: ammonia, 5 mole/liter; ammonium carbonate, 120 gram/liter; and trans-cinnamic acid, 10 gram/liter. The other two vessels contained a substrate solution composed of: ammonia, 4.2 mole/liter; ammonium sulfate, 75 gram/liter; and trans-cinnamic acid, 10 gram/liter. The pH in all four vessels was 10.5, and the temperature was maintained at 35° C. All four vessels were de-aerated by sparging with nitrogen gas. Finally, one vessel of each pair had 600 mg/liter of 2-mercaptoethanol added. The reaction was started by adding PAL-containing microbial cells to each of the four vessels in the amount of 1.7 gram (dry basis) per liter. (The microbial cells were produced by the method of Example 1.) The vessels were agitated for one minute every three hours. Supplemental trans-cinnamic acid was added to all four vessels in the amount of 2.5 gram/liter at 3, 6, 9, and 12 hours after the addition of cells. After 15 hours, the concentration of L-phenylalanine in the reaction mixtures was measured, and the PAL activity of the cells was determined.

[3] = molecular target: T1, phenylalanine ammonia-lyase (PAL); assay: Example 3: optimum concentration of 2-mercaptoethanol, five vessels; assay type: biochemical, Rhodotorula rubra; conditions: for L-Phenylalanine Produced / PAL Activity (% of Activity): after 24 hours
Procedure: The optimum concentration of 2-mercaptoethanol was determined by carrying out reactions in five vessels with varying concentrations of 2-mercaptoethanol. The procedures used were the same as those described in Examples 1 and 2, with the following modifications. The nutrient medium for the fermentation was composed of: yeast extract (Amber Laboratories, Amberex 1003) 1.35%; corn steep liquor 0.18%; and L-phenylalanine 2.7%. The substrate solution for L-phenylalanine production contained: ammonia 5.1 mole/liter; ammonium sulfate 120 gram/liter; and cinnamic acid 10 gram/liter, with 2.5 gram/liter added at 3, 6, 9, and 12 hours after the addition of cells. The quantity of cells added to each of the vessels was 1.6 gram (dry basis) per liter. After 24 hours, the L-phenylalanine concentration in the reaction mixture was measured, and the PAL activity of the cells was determined.

[4] = molecular target: T1, phenylalanine ammonia-lyase (PAL); assay: Example 4: 300 gallon reactor bioreaction with 2-mercaptoethanol; assay type: biochemical, Rhodotorula rubra; conditions: 404 ml 2-mercaptoethanol in 900 liters substrate solution, after 53.5 hours, 30° C.
Procedure: PAL-containing microbial cells were cultivated in three 250-liter fermentors, each containing 163 liters of nutrient medium. The medium was composed of: yeast extract (Amber Laboratories, Amberex 1003) 1.38%; beet molasses 4%; diammonium phosphate 0.18%; and L-phenylalanine 0.92%. The fermentor was inoculated with a shake flask culture of Rhodotorula rubra. The fermentation was carried out at 30° C. with aeration and agitation. The pH was maintained at 6.0 by periodic additions of ammonia water or sulfuric acid. During the fermentation, the PAL activity of the microbial cells was monitored, and when the PAL activity reached a maximum, at 28-30 hours after inoculation, the fermentations were stopped by shutting off the aeration and agitation. The vessels were de-aerated by sparging with nitrogen gas. Microbial cells were harvested by means of a Westfalia disc-bowl centrifuge. The combined yield of cells from all three fermentators was 5.04 kg (dry basis). Substrate solution for L-phenylalanine production was prepared as follows. […] The trans-cinnamic acid concentration in the reaction mixture was monitored at intervals of approximately two hours, and supplemental trans-cinnamic acid was added whenever necessary, to maintain a concentration of between 10 and 18 gram/liter. […]

PAL = conditions: cited from earlier work

PAL Activty (% of Initial) ([1]; 100 mg/l 2-mercaptoethanol): 31.2 % of Initial | L-Phenylalanine Produced ([1]; 100 mg/l 2-mercaptoethanol): 7.34 gm/l | PAL Activty (% of Initial) ([1]; 500 mg/l 2-mercaptoethanol): 39.4 % of Initial | L-Phenylalanine Produced ([1]; 500 mg/l 2-mercaptoethanol): 9.26 gm/l | PAL Activty (% of Initial) ([1]; 1,000 mg/l 2-mercaptoethanol): 35.9 % of Initial | L-Phenylalanine Produced ([1]; 1,000 mg/l 2-mercaptoethanol): 8.54 gm/l | L-Phenylalanine Produced ([2]; ammonium carbonate): 12.9 gm/l | PAL Activity (% of Initial) ([2]; ammonium carbonate): 46.6 % of Initial | L-Phenylalanine Produced ([2]; ammonium sulfate): 10.8 gm/l | PAL Activity (% of Initial) ([2]; ammonium sulfate): 38.7 % of Initial | L-Phenylalanine Produced ([3]; 300 mg/l 2-mercaptoethanol): 12.6 gram/l | PAL Activity (% of Activity) ([3]; 300 mg/l 2-mercaptoethanol): 27.5 % of Activity | L-Phenylalanine Produced ([3]; 400 mg/l 2-mercaptoethanol): 14.6 gram/l | PAL Activity (% of Activity) ([3]; 400 mg/l 2-mercaptoethanol): 32.4 % of Activity | L-Phenylalanine Produced ([3]; 500 mg/l 2-mercaptoethanol): 15.4 gram/l | PAL Activity (% of Activity) ([3]; 500 mg/l 2-mercaptoethanol): 34.2 % of Activity | L-Phenylalanine Produced ([3]; 600 mg/l 2-mercaptoethanol): 14.8 gram/l | PAL Activity (% of Activity) ([3]; 600 mg/l 2-mercaptoethanol): 32.7 % of Activity | L-Phenylalanine Produced ([3]; 800 mg/l 2-mercaptoethanol): 14.6 gram/l | PAL Activity (% of Activity) ([3]; 800 mg/l 2-mercaptoethanol): 31.7 % of Activity | optimum concentration of 2-mercaptoethanol ([3]; Example 3 conditions): approximately 500 mg/liter | PAL activity of the cells in the reactor, of the initial activity [4]: 27% | L-phenylalanine in the reaction mixture ([4]; ammonium carbonate): 33.3 gram/liter
Structure (SMILES): OCCS [2-mercaptoethanol]

Structure (SMILES): O=C(O)/C=C/c1ccccc1 [t-cinnamic acid]
rate of conversion of L-phenylalanine relative to the maximum rate (PAL; t-cinnamic acid 150 mM (substrate inhibition)): one-half

Structure (SMILES): CC[C@H](C)[C@H](N)C(=O)O [L-isoleucine, reference compound]
effect on PAL stability (PAL; extended the useful period of activity of the enzyme): stabilizing effect
